Earlier results on 2 molecules are cited in patent US12274791B2, “Multiple unit dosage form having a therapeutic agent in combination with a nutritional supplement” (Bonafide Health, LLC, priority 2007, dated 2025).

Read-outs that look alike come from different tables or passages of the source.

On to Chromium picolinate, for which the toxic effects result (rat, in vivo) was “without toxic effects”.

As to `[Cl][Cr]([Cl])[Cl]` [chromium chloride], the toxic effects result (rats, levels several thousand times the upper limit of the ESADDI for chromium for humans (based on body weight)) is reported as “without toxic effects”.
